The source of these data is patent publication US9763942B2, “Serine/threonine kinase inhibitors” (Array BioPharma Inc., priority 2013, dated 2017).

The structures appear in SMILES notation.

The target in one assay is T1, human ERK-2 (Mitogen Activated Kinase 1) (Homo sapiens, UniProt P28482).
T1 construct: n-terminal 6-His fusion protein in E. coli and corresponding to aa 8-360; 6-His (N); made in house; host or cells: E. coli
T1 sequence (P28482 8-360): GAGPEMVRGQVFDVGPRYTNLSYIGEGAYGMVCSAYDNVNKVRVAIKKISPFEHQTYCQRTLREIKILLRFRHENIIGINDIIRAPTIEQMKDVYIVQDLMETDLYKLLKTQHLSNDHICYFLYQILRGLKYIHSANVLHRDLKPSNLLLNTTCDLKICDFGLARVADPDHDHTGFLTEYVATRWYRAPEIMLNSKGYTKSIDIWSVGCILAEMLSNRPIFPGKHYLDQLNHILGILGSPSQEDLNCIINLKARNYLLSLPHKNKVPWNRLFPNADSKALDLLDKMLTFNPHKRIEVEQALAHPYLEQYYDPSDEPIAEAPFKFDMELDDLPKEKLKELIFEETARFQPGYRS
The assay is described as follows: ERK-2 Enzymatic Assay. It is filed as biochemical. The settings on record: 5 nM ERK-2 enzyme, 25 μM ATP (observed Km), Omnia peptide S/T17; single assay or mean of multiple assays; read-out: Biological Example 1 IC50. The source says: Table 1 contains representative data for Examples disclosed herein.
On to `COc1ncc(F)cc1N1CC[C@H](n2nnc3cc(-c4ccnc(Nc5ccnn5C)n4)ccc32)C1` [Example 81, (S)-4-(1-(1-(5-fluoro-2-methoxypyridin-3-yl)pyrrolidin-3-yl)-1H-benzo[d][1,2,3]triazol-5-yl)-N-(1-methyl-1H-pyrazol-5-yl)pyrimidin-2-amine], for which the IC50 was found to be 511 nM.

Staying with this assay, now noted: ERK-2 enzymatic assay; read-out: IC50.
As to `Cn1nccc1Cn1nnc2cc(-c3ccnc(Nc4ccnn4C)n3)ccc21` [Example 39, N-(1-methyl-1H-pyrazol-5-yl)-4-(1-((1-methyl-1H-pyrazol-5-yl)methyl)-1H-benzo[d][1,2,3]triazol-5-yl)pyrimidin-2-amine], the concentration for half-maximal inhibition (IC50) is below 100 nM.
`CC(C)Cn1nnc2cc(-c3ccnc(Nc4ccnn4C)n3)ccc21` [Example 38, 4-(1-isobutyl-1H-benzo[d][1,2,3]triazol-5-yl)-N-(1-methyl-1H-pyrazol-5-yl)pyrimidin-2-amine]: the IC50 is below 100 nM.
Turning to `CC(C)Cn1nnc2cc(-c3ccnc(Nc4cnn(C)n4)n3)ccc21` [Example 99, 4-(1-isobutyl-1H-benzo[d][1,2,3]triazol-5-yl)-N-(2-methyl-2H-1,2,3-triazol-4-yl)pyrimidin-2-amine], the IC50 is below 100 nM.
Still for that read-out and setting: the same measure for `COc1ccc(Cn2nnc3cc(-c4ccnc(NC(C)(C)CN5CCOCC5)n4)ccc32)cc1F` [Example 23, 4-(1-(3-fluoro-4-methoxybenzyl)-1H-benzo[d][1,2,3]triazol-5-yl)-N-(2-methyl-1-morpholinopropan-2-yl)pyrimidin-2-amine]: below 100 nM; for `Cc1ncccc1Cn1nnc2cc(-c3ccnc(Nc4ccnn4C)n3)ccc21` [Example 53, N-(1-methyl-1H-pyrazol-5-yl)-4-(1-((2-methylpyridin-3-yl)methyl)-1H-benzo[d][1,2,3]triazol-5-yl)pyrimidin-2-amine]: below 100 nM.
For `COc1ccc(Cn2nnc3cc(-c4ccnc(Nc5nnn(C)n5)n4)ccc32)cc1F` [Example 26, 4-(1-(3-fluoro-4-methoxybenzyl)-1H-benzoyl[d][1,2,3]triazol-5-yl)-N-(2-methyl-2H-tetrazol-5-yl)pyrimidin-2-amine], the concentration for half-maximal inhibition (IC50) was below 100 nM.
In the case of `COc1ncccc1Cn1nnc2cc(-c3ccnc(Nc4ccnn4C)n3)ccc21` [Example 67, 4-(1-((2-methoxypyridin-3-yl)methyl)-1H-benzo[d][1,2,3]triazol-5-yl)-N-(1-methyl-1H-pyrazol-5-yl)pyrimidin-2-amine], the IC50 is below 100 nM.
Same read-out and setting: to `Cn1nccc1Nc1nccc(-c2ccc3c(c2)nnn3Cc2ccccc2C(F)(F)F)n1` [Example 122] belongs below 100 nM; to `Cn1nccc1Nc1nccc(-c2ccc3c(c2)nnn3CC2CN(CC(F)(F)F)C2)n1` [Example 64, N-(1-methyl-1H-pyrazol-5-yl)-4-(1-((1-(2,2,2-trifluoroethyl)azetidin-3-yl)methyl)-1H-benzo[d][1,2,3]triazol-5-yl)pyrimidin-2-amine], below 100 nM.
Same read-out and setting: the same measure for `Cn1nccc1Nc1nccc(-c2ccc3c(c2)nnn3CC(C)(F)F)n1` [Example 31, 4-(1-(2,2-difluoropropyl)-1H-benzo[d][1,2,3]triazol-5-yl)-N-(1-methyl-1H-pyrazol-5-yl)pyrimidin-2-amine]: below 100 nM.
Still for that read-out and setting: the same measure for `Cn1nccc1Nc1nccc(-c2cnc3c(c2)nnn3Cc2ccc(F)c(Cl)c2)n1` [Example 121, 4-(3-(3-chloro-4-fluorobenzyl)-3H-[1,2,3]triazolo[4,5-b]pyridin-6-yl)-N-(1-methyl-1H-pyrazol-5-yl)pyrimidin-2-amine]: below 100 nM; for `COc1ccc(Cn2nnc3cc(-c4ccnc(N[C@@H](C)CO)n4)ccc32)cc1F` [Example 19, (S)-2-((4-(1-(3-fluoro-4-methoxybenzyl)-1H-benzo[d][1,2,3]triazol-5-yl)pyrimidin-2-yl)amino)propan-1-ol]: below 100 nM.
For the compound `COc1ccc([C@@H](c2cnnn2C)n2nnc3cc(-c4ccnc(Nc5ccnn5C)n4)ccc32)cc1F` [Example 71, (S)-4-(l-((3-fluoro-4-methoxyphenyl)(1-methyl-1H-1,2,3-triazol-5-yl)methyl)-1H-benzo[d][1,2,3]triazol-5-yl)-N-(1-methyl-1H-pyrazol-5-yl)pyrimidin-2-amine], the IC50 was below 100 nM.
As for `Cn1nccc1Nc1nccc(-c2ccc3c(c2)nnn3[C@H]2CNCC(F)(F)C2)n1` [Example 79, (R)-4-(1-(5,5-difluoropiperidin-3-yl)-1H-benzo[d][1,2,3]triazol-5-yl)-N-(1-methyl-1H-pyrazol-5-yl)pyrimidin-2-amine], the IC50 was below 100 nM.
Same read-out and setting: to `COCCCn1nnc2cc(-c3ccnc(Nc4ccnn4C)n3)ccc21` [Example 42, 4-(1-(3-methoxypropyl)-1H-benzo[d][1,2,3]triazol-5-yl)-N-(1-methyl-1H-pyrazol-5-yl)pyrimidin-2-amine] belongs below 100 nM; to `COc1ccc(Cn2nnc3cc(-c4ccnc(Nc5ccnn5C)n4)ccc32)cc1F` [Example 113, 4-(1-(3-fluoro-4-methoxybenzyl)-1H-benzol[d][1,2,3]triazol-5-yl)-N-(1-methyl-1H-pyrazol-5-yl)pyrimidin-2-amine], below 100 nM.
Turning to `CN1C[C@@H](n2nnc3cc(-c4ccnc(Nc5ccnn5C)n4)ccc32)[C@H](c2ccc(F)cc2F)C1` [Example 74, 4-(1-((3S,4R)-4-(2,4-difluorophenyl)-1-methylpyrrolidin-3-yl)-1H-benzo[d][1,2,3]triazol-5-yl)-N-(1-methyl-1H-pyrazol-5-yl)pyrimidin-2-amine], the IC50 is below 100 nM.
Same read-out and setting: to `Cn1nccc1Nc1nccc(-c2ccc3c(c2)nnn3CC2CCCCO2)n1` (stereo not drawn) [Example 101, N-(1-methyl-1H-pyrazol-5-yl)-4-(1-((tetrahydro-2H-pyran-2-yl)methyl)-1H-benzoyl[d][1,2,3]triazol-5-yl)pyrimidin-2-amine] belongs below 100 nM; to `Cn1nccc1Nc1nccc(-c2cnc3c(c2)nnn3Cc2cccc(Cl)c2)n1` [Example 124, 4-(3-(3-chlorobenzyl)-3H-[1,2,3]triazolo[4,5-b]pyridin-6-yl)-N-(1-methyl-1H-pyrazol-5-yl)pyrimidin-2-amine], below 100 nM; to `Cn1nccc1Nc1nccc(-c2ccc3c(c2)nnn3CCc2cccc(Cl)c2)n1` [Example 50, 4-(1-(3-chlorophenethyl)-1H-benzo[d][1,2,3]triazol-5-yl)-N-(1-methyl-1H-pyrazol-5-yl)pyrimidin-2-amine], below 100 nM.
For `COc1ccc([C@@H](CO)n2nnc3cc(-c4ccnc(Nc5ccnn5C)n4)ccc32)cc1F` [Example 95, (S)-2-(3-fluoro-4-methoxyphenyl)-2-(5-(2-((1-methyl-1H-pyrazol-5-yl)amino)pyrimidin-4-yl)-1H-benzo[d][1,2,3]triazol-1-yl)ethanol], the IC50 is below 100 nM.
On the same count and under the same terms, to `Cn1nccc1Nc1nccc(-c2ccc3c(c2)nnn3Cc2cccnc2Cl)n1` [Example 66, 4-(1-((2-chloropyridin-3-yl)methyl)-1H-benzo[d][1,2,3]triazol-5-yl)-N-(1-methyl-1H-pyrazol-5-yl)pyrimidin-2-amine] belongs below 100 nM; to `COc1ccc(Cn2nnc3cc(-c4ccnc(NC5CC5)n4)ccc32)cc1F` [Example 15, N-cyclopropyl-4-(1-(3-fluoro-4-methoxybenzyl)-1H-benzo[d][1,2,3]triazol-5-yl)pyrimidin-2-amine], below 100 nM; to `COc1cccc(F)c1CN1C[C@H](n2nnc3cc(-c4ccnc(Nc5ccnn5C)n4)ccc32)CC(F)(F)C1` [Example 106, (R)-4-(1-(5,5-difluoro-1-(2-fluoro-6-methoxybenzyl)piperidin-3-yl)-1H-benzo[d][1,2,3]triazol-5-yl)-N-(1-methyl-1H-pyrazol-5-yl)pyrimidin-2-amine], below 100 nM.
Same read-out and setting: the same measure for `Cn1nccc1Nc1nccc(-c2ccc3c(c2)nnn3CC2CN(C(=O)OC(C)(C)C)C2)n1` [Example 63, tert-butyl 3-((5-(2-((1-methyl-1H-pyrazol-5-yl)amino)pyrimidin-4-yl)-1H-benzo[d][1,2,3]triazol-1-yl)methyl)azetidine-1-carboxylate]: below 100 nM; for `Cn1nccc1Nc1nccc(-c2ccc3c(c2)nnn3Cc2ccc(OC(F)F)cc2)n1` [Example 51, 4-(1-(4-(difluoromethoxy)benzyl)-1H-benzo[d][1,2,3]triazol-5-yl)-N-(1-methyl-1H-pyrazol-5-yl)pyrimidin-2-amine]: below 100 nM; for `Clc1ccc(Cn2nnc3cc(-c4ccnc(NC5CCOCC5)n4)ccc32)cc1` [Example 112]: below 100 nM.
On the same count and under the same terms, to `Cn1nccc1Nc1nccc(-c2ccc3c(c2)nnn3CC(F)F)n1` [Example 37, 4-(1-(2,2-difluoroethyl)-1H-benzo[d][1,2,3]triazol-5-yl)-N-(1-methyl-1H-pyrazol-5-yl)pyrimidin-2-amine] belongs below 100 nM.
For the compound `COc1ncccc1Cn1nnc2cc(-c3ccnc(Nc4ccnn4C)c3)ccc21` [Example 54, 4-(1-((2-methoxypyridin-3-yl)methyl)-1H-benzo[d][1,2,3]triazol-5-yl)-N-(1-methyl-1H-pyrazol-5-yl)pyridin-2-amine], the IC50 is below 100 nM.
For the compound `COc1cccc(F)c1CN1CC(n2nnc3cc(-c4ccnc(Nc5ccnn5C)n4)ccc32)C1` [Example 88, 4-(1-(1-(2-fluoro-6-methoxybenzyl)azetidin-3-yl)-1H-benzo[d][1,2,3]triazol-5-yl)-N-(1-methyl-1H-pyrazol-5-yl)pyrimidin-2-amine], the IC50 was below 100 nM.
Still for that read-out and setting: to `CC(C)Cn1nnc2cc(-c3ccnc(Nc4cnn(C)c4)n3)ccc21` [Example 97, 4-(1-isobutyl-1H-benzo[d][1,2,3]triazol-5-yl)-N-(1-methyl-1H-pyrazol-4-yl)pyrimidin-2-amine] belongs below 100 nM; to `Cn1nccc1Nc1nccc(-c2ccc3c(c2)nnn3[C@@H]2CNC[C@H]2c2ccc(F)c(F)c2)n1` [Example 78, 4-(1-((3S,4R)-4-(3,4-difluorophenyl)pyrrolidin-3-yl)-1H-benzo[d][1,2,3]triazol-5-yl)-N-(1-methyl-1H-pyrazol-5-yl)pyrimidin-2-amine], below 100 nM.

Usually IC50 stands for the concentration that inhibits the measured activity by half.
